Starred links: 1 amine or outer side, 2 acyl side, 3 side chain; linkers in the order of their positions; H or OH if unused. Positions of bridges follow the written chain, without caps; N, C: chain ends. Non-standard residues stand in square brackets, D forms with d. Residues, ends and D or L forms follow the SMILES beside them. ξ: configuration not given here. *: point of attachment. Propanoyl(3-(4-HOOCCH2-Ph)) = O=C(O)Cc1ccc(CCC(=O)*)cc1; X4 = O=C([C@@H](Cc1ccc(Cc2nn[nH]n2)cc1)N[*:1])[*:2]; X5 = CCOC(=O)Cc1ccc(C[C@H](N[*:1])C(=O)[*:2])cc1; X9 = O=C(C(Cc1ccc(-c2nnn[nH]2)cc1)N[*:1])[*:2]; X12 = O=C(O)Cc1cccc(CC(N[*:1])C(=O)[*:2])c1; X1 = O=C(O)Cc1ccc(CC(N[*:1])C(=O)[*:2])cc1; ξPhe(4-COOH) = NC(Cc1ccc(C(=O)O)cc1)C(=O)O; X10 = O=C(CCc1ccc(-c2nn[nH]n2)cc1)*; NMeF = CN[C@@H](Cc1ccccc1)C(=O)O; Nle = CCCC[C@H](N)C(=O)O
Columns and labels:
[1] = target: T1, Bovine Striatum (3H-CCK-8-(SO3 H) receptor binding) (Bos taurus, UniProt P79266); assay: In vitro receptor binding assay, 3H-CCK-8-(SO3H), bovine striatum homogenate; conditions: 3H-CCK-8-(SO3H) 0.15 nM, 30 min at 25° C., bovine striatum homogenate; read-out: Bovine Striatum IC50 (concentration to inhibit 50% of specific 3H-CCK-8-(SO3H) binding)
T1 construct: tissue homogenate (striatum approximately 0.26 mg protein in 2 mL final volume); from tissue; host or cells: bovine striatum membrane homogenate
T1 sequence (P79266 1-454): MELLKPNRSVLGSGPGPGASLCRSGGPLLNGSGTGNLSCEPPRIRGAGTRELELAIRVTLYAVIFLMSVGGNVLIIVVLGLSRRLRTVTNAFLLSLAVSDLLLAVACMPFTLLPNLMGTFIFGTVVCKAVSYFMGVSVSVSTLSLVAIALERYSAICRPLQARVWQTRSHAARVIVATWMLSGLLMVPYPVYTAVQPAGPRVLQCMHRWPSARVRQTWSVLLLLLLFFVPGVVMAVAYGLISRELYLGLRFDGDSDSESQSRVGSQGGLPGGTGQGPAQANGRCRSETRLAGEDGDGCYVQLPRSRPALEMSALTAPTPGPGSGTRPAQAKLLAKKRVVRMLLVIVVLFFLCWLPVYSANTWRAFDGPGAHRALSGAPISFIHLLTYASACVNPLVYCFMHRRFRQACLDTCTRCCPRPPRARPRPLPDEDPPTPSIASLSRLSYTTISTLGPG
Experimental: (§1) Frozen bovine striatum (approx. 5 g) or fresh rat pancreas (approx. 5 g) cleaned of fat and extraneous tissue were homogenized in HEPES buffer #1 (10 mM HEPES+130 mM NaCl+5 mM MgCl2, pH 7.4) using 35 parts buffer per 1 part tissue on a wet weight/volume basis (approx. 175 mL). The tissue was homogenized 2×for approx. 15 sec. at 0° C. using a Polytron homogenizer at a setting of 6. The tissue was isolated by centrifugation at 48,000× g for 10 min at 0° C. The resulting tissue pellet was resuspended in HEPES buffer #2 (10 mM HEPES+130 mM NaCl+5 mM MgCl2 +1 mg/L phenylmethanasulfonyl fluoride (PMSF)+200 mg/L Bacitracin): 1 part striatal tissue (original wet weight) per 80 parts buffer and 1 part pancreas tissue (original wet weight) per 500 to 1000 parts buffer.
(§2) Incubation was initiated by combining various concentrations of native CCK-8 or peptides of the invention with ^3 H-CCK-8-(SO3 H) (final conc.=0.15 nM) and tissue homogenate (striatum approximately 0.26 mg protein in 2 mL final volume; pancreas approximately 0.100 mg protein in 1 mL final volume). Samples were incubated for 30 min at 25° C. and the incubation terminated by pouring the mixture onto a pre-wetted Whatman GF/B filter on a Sandbeck Vacuum Filtration Manifold. The incubation tubes were washed with 2×3 mL of ice-cold HEPES Buffer #2 and the wash filtered through the GF/B filter. The filter was air dried for 10 min and then placed in a scintillation vial with 12 mL of DuPont/NEN Aquasol scintillation cocktail. The vials were shaken overnight and then counted using a liquid scintillation spectrometer. Non-specific binding was determined in the presence of 1 micromolar native CCK-8 and subtracted from all samples to determine specific binding. The concentration of peptide necessary to inhibit 50% of total specific H-CCK-8-(SO3 H) binding (IC50 value) was determined by log-probit analysis.

[2] = target: T2, rat pancreas (3H-CCK-8-(SO3 H) receptor binding) (Rattus norvegicus, UniProt P30551); assay: In vitro receptor binding assay, 3H-CCK-8-(SO3H), rat pancreas homogenate; conditions: 3H-CCK-8-(SO3H) 0.15 nM, 30 min at 25° C., rat pancreas homogenate; read-out: Rate Pancreas IC50 (concentration to inhibit 50% of specific 3H-CCK-8-(SO3H) binding)
T2 construct: pancreas approximately 0.100 mg protein in 1 mL final volume; from tissue; host or cells: rat pancreas membrane homogenate
T2 sequence (P30551 1-444): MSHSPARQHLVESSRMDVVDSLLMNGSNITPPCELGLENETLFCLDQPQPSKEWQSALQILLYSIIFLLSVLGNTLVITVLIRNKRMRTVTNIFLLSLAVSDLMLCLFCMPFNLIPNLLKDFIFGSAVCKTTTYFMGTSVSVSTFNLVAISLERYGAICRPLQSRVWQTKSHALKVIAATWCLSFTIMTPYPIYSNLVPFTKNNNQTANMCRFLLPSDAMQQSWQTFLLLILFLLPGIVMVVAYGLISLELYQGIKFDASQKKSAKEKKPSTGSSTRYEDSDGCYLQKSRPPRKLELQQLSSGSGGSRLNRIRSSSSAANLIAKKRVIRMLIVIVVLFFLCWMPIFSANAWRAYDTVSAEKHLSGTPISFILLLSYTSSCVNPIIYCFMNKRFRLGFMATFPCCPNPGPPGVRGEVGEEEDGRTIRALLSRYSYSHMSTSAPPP
Experimental: as §1, §2

[3] = tested on: Male Sprague-Dawley (CD) rats; assay: Two-Meal Feeding Assay; format: in vivo; conditions: rat
Experimental: Male Sprague-Dawley (CD) rats weighing 180-200 grams (Charres River Breeding Laboratories) were acclimated to a 12 h light/dark cycle (6 a.m. to 6 p.m.) in a room kept at 22° C. They were subsequently fasted for two days, weighed, placed in individual cages, and a four-day period of meal training was begun. During this time the rats were given ground laboratory chow (Purina Lab Chow) in jars for one hour from 9:00 a.m. until 10:00 a.m., the jars were removed from 10:00 a.m. to 12:00 p.m., and placed back in the cages from 12:00 until 1:00 p.m. Under this `1-2-1` meal feeding regime, most rats learn to eat approximately as much per day during the two hours they have access to food as rats which have food ad libitum over the entire 24-hour day. On the fourth day, the rats were weighed again, and any which lost more than five grams body weight were excluded from the test. The animals were then distributed into experimental (n=5 to 6) and control groups (n=6-12), but not matched for body weight.
Peptides of the invention were suspended either in saline, if soluble, or in 0.5% DMSO/saline, if insoluble, at concentrations of 0 to 320 μg/mL/kg body weight and were administered intraperitoneally 15 min before the first meal on day 5 of meal feeding. The rats were then given their meals as they had been during the previous four days, and the food cups were weighed both before and after each meal to determine food consumption. Food intake was expressed as a mean and standard error of the mean in percent of control values for the various groups. The treated groups were compared to the control groups by t-test analysis.

[4] = dose 10 Microgram/kg intraperitoneally 15 min before first meal
[5] = dose 32 Microgram/kg intraperitoneally 15 min before first meal
[6] = dose 100 Microgram/kg intraperitoneally 15 min before first meal
[7] = dose 320 Microgram/kg intraperitoneally 15 min before first meal

IC50 [1] | IC50 [2] | SMILES | further results
34 nM | 62 nM | CSCC[C@H](NC(=O)C(Cc1ccc(C(=O)O)cc1)NC(C)=O)C(=O)NCC(=O)N[C@@H](Cc1c[nH]c2ccccc12)C(=O)N[C@@H](CCSC)C(=O)N[C@@H](CC(=O)O)C(=O)N[C@@H](Cc1ccccc1)C(N)=O (stereo partly drawn) [Example 43, AC-(D,L)Phe(4-COOH)-Met-Gly-Trp-Met-Asp-Phe-NH2] (Ac-[ξPhe(4-COOH)]MGWMDF-NH2) | 
53 nM | 23 nM | CSCC[C@H](NC(=O)C(Cc1cccc(CC(=O)O)c1)NC(C)=O)C(=O)NCC(=O)N[C@@H](Cc1c[nH]c2ccccc12)C(=O)N[C@@H](CCSC)C(=O)N[C@@H](CC(=O)O)C(=O)N[C@@H](Cc1ccccc1)C(N)=O (stereo partly drawn) [Example 58, Ac-(D,L)Phe-(3-CH2 COOH)-Met-Gly-Trp-Met-Asp-Phe-NH2] (Ac-[X12]MGWMDF-NH2) | 
3.2 nM | 1.8 nM | CSCC[C@H](NC(=O)CCc1ccc(CC(=O)O)cc1)C(=O)NCC(=O)N[C@@H](Cc1c[nH]c2ccccc12)C(=O)N[C@@H](CCSC)C(=O)N[C@@H](CC(=O)O)C(=O)N(C)[C@@H](Cc1ccccc1)C(N)=O [Example 69, Desamino-Phe(4-CH2 -COOH)-Met-Gly-Trp-Met-Asp-N-methyl-Phe-NH2] ({Propanoyl(3-(4-HOOCCH2-Ph))}-MGWMD[NMeF]-NH2) | 
10000 nM | 3600 nM | CCOC(=O)Cc1ccc(C[C@H](NC(C)=O)C(=O)N[C@@H](CCSC)C(=O)NCC(=O)N[C@@H](Cc2c[nH]c3ccccc23)C(=O)N[C@@H](CCSC)C(=O)N[C@@H](CC(=O)OCC)C(=O)N[C@@H](Cc2ccccc2)C(N)=O)cc1 [Example 50, Ac-Phe(4-CH2 COOC2 H5)-Met-Gly-Trp-Met-Asp-(COOC2 H5)-Phe-NH2] (Ac-[X5]MGWMD(OEt)F-NH2) | 
 |  | CCCC[C@H](NC(=O)[C@H](Cc1c[nH]c2ccccc12)NC(=O)CNC(=O)[C@H](CCCC)NC(=O)[C@@H](Cc1ccc(Cc2nn[nH]n2)cc1)NC(C)=O)C(=O)N[C@@H](CC(=O)O)C(=O)N(C)[C@@H](Cc1ccccc1)C(N)=O [Example 64, Ac-(D)-Phe(4-CH2 -tetrazole)-Nle-Gly-Trp-Nle-Asp-N-methyl-Phe-NH2] (Ac-[X4][Nle]GW[Nle]D[NMeF]-NH2) | Food Intake 1st Meal [3, 4]: 112 ± 10 % of Control; Food Intake 2nd Meal [3, 4]: 102 ± 9 % of Control; Food Intake 1st Meal [3, 5]: 79 ± 5 % of Control; Food Intake 2nd Meal [3, 5]: 148 ± 12 % of Control; Food Intake 1st Meal [3, 6]: 56 % of Control; Food Intake 2nd Meal [3, 6]: 173 ± 5 % of Control; Food Intake 1st Meal [3, 7]: 21 ± 6 % of Control; Food Intake 2nd Meal [3, 7]: 207 % of Control
1400 nM | 2900 nM | CSCC[C@@H]1NC(=O)[C@H](Cc2c[nH]c3ccccc23)NC(=O)CNC(=O)[C@@H](NC(=O)CCc2ccc(-c3nn[nH]n3)cc2)CCCCNC(=O)C[C@@H](C(=O)N(C)[C@@H](Cc2ccccc2)C(N)=O)NC1=O [Example 68] (X10-KGWMD[NMeF]-NH2; lactam 1-5) | 
10000 nM | 4650 nM | CSCC[C@@H]1NC(=O)[C@H](Cc2c[nH]c3ccccc23)NC(=O)CNC(=O)[C@@H](NC(=O)C(Cc2ccc(CC(=O)O)cc2)NC(C)=O)CCCCNC(=O)C[C@@H](C(=O)N(C)[C@@H](Cc2ccccc2)C(N)=O)NC1=O (stereo partly drawn) [Example 56, Ac-(D,L)Phe(4-CH2 COOH)-Lys-Gly-Trp-Met-Asp-N-methyl-Phe-NH2] (Ac-[X1]KGWMD[NMeF]-NH2; lactam 2-6) | 
580 nM | 1100 nM | CSCC[C@@H]1NC(=O)[C@H](Cc2c[nH]c3ccccc23)NC(=O)CNC(=O)[C@@H](NC(=O)C(Cc2ccc(-c3nnn[nH]3)cc2)NC(C)=O)CCCCNC(=O)C[C@@H](C(=O)N(C)[C@@H](Cc2ccccc2)C(N)=O)NC1=O (some centres unmarked) [Example 57] (Ac-[X9]KGWMD[NMeF]-NH2; lactam 2-6) | Food Intake 1st Meal [3, 5]: 75 ± 6 % of Control; Food Intake 2nd Meal [3, 5]: 160 ± 14 % of Control; Food Intake 1st Meal [3, 7]: 36 ± 3 % of Control; Food Intake 2nd Meal [3, 7]: 148 ± 6 % of Control
